In article PMC12442245, “Activity Analysis of the P2X Receptor Antagonist PPADS against Signal Transducer and Activator of Transcription Proteins” (Chembiochem, 2025) one finds IC50 data, which are given here for 2 compounds.

The target of the test is T1, STAT5a (Homo sapiens, UniProt P42229).
T1 sequence (P42229 1-794): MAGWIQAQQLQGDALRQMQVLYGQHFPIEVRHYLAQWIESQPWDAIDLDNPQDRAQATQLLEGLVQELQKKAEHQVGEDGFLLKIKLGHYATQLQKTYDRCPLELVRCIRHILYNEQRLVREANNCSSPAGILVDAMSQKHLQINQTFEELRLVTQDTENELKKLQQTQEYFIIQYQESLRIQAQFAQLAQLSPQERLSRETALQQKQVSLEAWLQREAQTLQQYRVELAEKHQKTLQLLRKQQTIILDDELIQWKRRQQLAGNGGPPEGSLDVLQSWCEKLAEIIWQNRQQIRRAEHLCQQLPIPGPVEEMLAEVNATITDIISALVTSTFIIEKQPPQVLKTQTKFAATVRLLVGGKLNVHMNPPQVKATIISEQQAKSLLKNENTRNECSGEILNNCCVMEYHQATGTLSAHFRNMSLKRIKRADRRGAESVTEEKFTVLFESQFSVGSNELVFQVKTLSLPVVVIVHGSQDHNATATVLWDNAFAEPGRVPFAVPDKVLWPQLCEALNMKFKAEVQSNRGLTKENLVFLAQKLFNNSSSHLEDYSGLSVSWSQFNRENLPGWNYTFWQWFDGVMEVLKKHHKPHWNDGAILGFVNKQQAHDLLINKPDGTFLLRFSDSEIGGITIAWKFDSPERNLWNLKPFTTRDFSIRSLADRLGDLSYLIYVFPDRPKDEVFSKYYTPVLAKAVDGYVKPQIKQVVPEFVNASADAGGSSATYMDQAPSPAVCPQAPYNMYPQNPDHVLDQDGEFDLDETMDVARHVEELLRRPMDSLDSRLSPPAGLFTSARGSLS
The test can be described thus: HTRF assay, STAT5a. Format: binding. As to conditions: STAT5a 110 nM, without reducing agent, 1 h. The source says: The azo dyes PPADS and iso‐PPADS have a deep red color in aqueous solution. […] In order to exclude this possibility, we established homogeneous time‐resolved fluorescence resonance energy transfer (HTRF) assays to confirm the degree of binding between STAT4, STAT5a, and STAT5b and the respective 5‐carboxyfluorescein‐labeled binding peptides used in the FP assay. In addition, an HTRF assay was established for STAT3, one of the STAT proteins targeted to a lesser extent in FP assays, as a specificity control (Figure 1B,C). The STAT protein constructs each contain a 6x‐His‐tag.^[ [15], [16], [17], [22] ^] A Tb^3+‐cryptate fused to an anti‐6x‐His antibody was chosen as the long‐lived fluorescent donor, while the carboxyfluorescein linked to the respective STAT‐binding peptides served as the acceptor (Figure 2A). Emission was measured with a time delay of 60 μs after excitation, allowing any initial compound fluorescence to decay beforehand. […]
Screening of chemical libraries comprising approximately 5000 known bioactive compounds in fluorescence polarization-based assays against phosphorylation-dependent protein-protein interaction domains, including STAT proteins, has been described.[1] […]
Fluorescence polarization assays
Competitive fluorescence polarization (FP) assays for STAT1,[2] […] Briefly, peptide binding to proteins was analyzed using the following carboxyfluorescein (CF) -labelled pepti des at a concentration of 10 nM: STAT1: 5-CF-GpYDKPHVL-OH, STAT3: 5-CF-GpYLPQTV -NH2, STAT4: 5-CF-GpYLPQNID-OH, STAT5a and STAT5b: 5-CF-GpYLVLDKW-OH, STAT6: 5- […]
CFGp[…]-OH. […] FP was measured using an Infinite F500 plate reader (Tecan) and measurements were converted into percent inhibition according to the binding curve equation. Curves were plotted and best fits calculated using OriginPro […]
Homogenous time-resolved fluorescence (HTRF) assays for STAT3, STAT4, STAT5a and STAT5b were carried out using Cisbio Monoclonal Antibody Anti-6His-Tb Gold as the fluorescence donor (Perkin Elmer) and the corresponding CF-labelled binding peptide as the acceptor. […] The average reading from 3 wells was obtained. […]

The IC50 is the point on the concentration scale where inhibition reaches its midpoint. High values mean a need for much substance, low ones inhibition by little substance. With `Cc1nc(/N=N/c2cc(S(=O)(=O)O)ccc2S(=O)(=O)O)c(COP(=O)(O)O)c(C=O)c1O` [iso‐PPADS], the IC50 was found to be 8.2 ± 0.7 µM.

`Cc1nc(/N=N/c2ccc(S(=O)(=O)O)cc2S(=O)(=O)O)c(COP(=O)(O)O)c(C=O)c1O` [PPADS, pyridoxalphosphate‐6‐azophenyl‐2',4'‐disulfonic acid] displayed an IC50 of 1.41 ± 0.35 µM.
